Measurements from the supplement of paper PMC11208160.

assay: recombinant barcode read abundance after kanamycin selection (control-corrected) (log10(CPM+1)); higher = more efficient recombination; sequences stand for … in AGTGCAGAGAAAATCGGCCAGTTTTCTCTGCCTGCAGTCCGCATGCCGT…AGATTTATGCAGCGGACTGCCTTTCTCCCAAAGTGATAAACCGGACAGTATCATGGACCGGTTTTCCCGGTAATCCGTATTTGCAAGGTTGGTTTCACT; site = the 11-nt target
Summary of the method: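 This pooled E. coli screen matched targets with IS621 bridge RNA target-binding loops. Plating was done in duplicate on chloramphenicol/ampicillin LB agar as a control and on chloramphenicol/ampicillin/kanamycin plus 0.1 mM IPTG. Recombination efficiency reflects barcode counts at recombinant junctions as counts per million, averaged and control-corrected. The figures are log10(CPM+1).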
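Also: IS621 recombinase and bridge RNA in Escherichia coli cells.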

Sequence	recombinant barcode read abundance (log10)
TCGTGAGCTTGGGTTCTAACCTGTTGCTG (site TCGTGAGCTCA)	0.301
CACGGTCCTTGGGTTCTAACCTGTTGCCA (site ATGCTATCTCT)	0.0164
GGCTGGGCTTGGGTTCTAACCTGTTGCCG (site GGTTGGGCTCT)	0.194
GGGTCGGCTTGGGTTCTAACCTGTTGCGG (site GGGTCGGCTAC)	0.147
GACGTACCTTGGGTTCTAACCTGTTGCCT (site GACTTACCTAG)	0.0104
CACTAGCCTTGGGTTCTAACCTGTTGCGG (site CACTATCCTCC)	0.133
TGGGACCCTTGGGTTCTAACCTGTTGCAT (site TGGGACCCTAT)	1.25
GGGCCTGCTTGGGTTCTAACCTGTTGCCT (site GGGCCCGCTAG)	0.645
GACGCCTCTTGGGTTCTAACCTGTTGCCT (site CACGCCTCTAG)	0.202
CGTAGGACTTGGGTTCTAACCTGTTGCCT (site GGTAGGACTAG)	0.0902
CTATGACCTTGGGTTCTAACCTGTTGCCT (site CTATGACCTAC)	0.23
CTCTCGTCTTGGGTTCTAACCTGTTGCTT (site CTCTCGTCTAT)	0.091
CGTAATGCTTGGGTTCTAACCTGTTGCCT (site CGCAATGCTAG)	0.234
GTCGGTCCTTGGGTTCTAACCTGTTGCCG (site GTCGGTCCTCG)	1.04
ACGCGAGCTTGGGTTCTAACCTGTTGCAG (site ACGCGAGCTCC)	0.318
AGTCTAGCTTGGGTTCTAACCTGTTGCCG (site AGTCTAGCTTG)	0.641
AGGGCGCCTTGGGTTCTAACCTGTTGCTT (site AGGGCGCCTAA)	1.18
CTAAGTCCTTGGGTTCTAACCTGTTGCAT (site CTAATTCCTAT)	0.116
TAGAAGGCTTGGGTTCTAACCTGTTGCAT (site TAGAAGGCTAT)	1.97
AAGCAAACTTGGGTTCTAACCTGTTGCCT (site AAGCGAACTAG)	0.22
GAGTGGCCTTGGGTTCTAACCTGTTGCTT (site GAGTGGCCTAC)	0.494
TCTCTGCCTTGGGTTCTAACCTGTTGCCT (site TCTCAGCCTAG)	0.277

Sequence	recombinant barcode read abundance (log10)
TGGTATGCTTGGGTTCTAACCTGTTGCCT (site TGGTATCCTAG)	0.0685
TTCTAGTCTTGGGTTCTAACCTGTTGCTA (site ACAAGACCTAT)	0.0562
ATGAGCTCTTGGGTTCTAACCTGTTGCTA (site ATGAGGTCTGA)	0.0495
GACTCCGCTTGGGTTCTAACCTGTTGCCT (site TACTCCGCTAG)	0.692
CGGTCCTCTTGGGTTCTAACCTGTTGCGC (site CGGGCCTCTGT)	0.0542
CAGGGGCCTTGGGTTCTAACCTGTTGCCT (site CAGAGGCCTAG)	0.0366
TGACCCTCTTGGGTTCTAACCTGTTGCCT (site GGACCCTCTAG)	0.0227
AGCTTAGCTTGGGTTCTAACCTGTTGCCG (site AGCTTAGCTAG)	0.14
ACGGGGTCTTGGGTTCTAACCTGTTGCCT (site GCGGGGTCTAG)	0.123
GTCTCAACTTGGGTTCTAACCTGTTGCCT (site TTCTGAACTAG)	0.0305
TAGGCCACTTGGGTTCTAACCTGTTGCGT (site TAGGCCACTAG)	0.0599
TAAGGTACTTGGGTTCTAACCTGTTGCTT (site TAAGGTACTAA)	1.26
GGCTTCCCTTGGGTTCTAACCTGTTGCCT (site GGCTTCCCTAG)	0.415
TCTTGTCCTTGGGTTCTAACCTGTTGCGC (site TCTTGTCCTAC)	0.0303
GAAGGAGCTTGGGTTCTAACCTGTTGCAG (site GAAGGAGCTCT)	1.51
CGGACGTCTTGGGTTCTAACCTGTTGCTG (site CGGACGTCTCA)	1.69
TGAGTACCTTGGGTTCTAACCTGTTGCTT (site TGAGTACCTAA)	1.39
CAGGGCCCTTGGGTTCTAACCTGTTGCCT (site TAGGGCCCTAG)	0.397
TCCCAGTCTTGGGTTCTAACCTGTTGCCT (site TCCCAGTCTAC)	0.889
TCCGTCCCTTGGGTTCTAACCTGTTGCAT (site TCCGACCCTGT)	0.0832
ACTGCGGCTTGGGTTCTAACCTGTTGCCT (site AATTCGGCTAG)	0.136
TATTTGTCTTGGGTTCTAACCTGTTGCTA (site TATTTGTCTTA)	0.486

Sequence	recombinant barcode read abundance (log10)
GCACTCTCTTGGGTTCTAACCTGTTGCCT (site GCACTCTCTAG)	1.58
TCTAAACCTTGGGTTCTAACCTGTTGCAT (site TCTAATCCTAT)	0.229
CTAAGGTCTTGGGTTCTAACCTGTTGCAT (site CTAAGGTCTAC)	0.176
TTAACTACTTGGGTTCTAACCTGTTGCTA (site TTAACTACTGA)	0.0479
CAGACTCCTTGGGTTCTAACCTGTTGCCT (site CAGACTCCTAG)	0.214
GATGGACCTTGGGTTCTAACCTGTTGCTA (site ATGTCTGCTAG)	0.0118
TGAGATGCTTGGGTTCTAACCTGTTGCCT (site TGATATGCTAG)	0.124
TAGCACACTTGGGTTCTAACCTGTTGCCG (site TCGCACACTCA)	0.0962
TCCCAGTCTTGGGTTCTAACCTGTTGCGT (site TCCCAGTCTAA)	0.433
GTAAGAACTTGGGTTCTAACCTGTTGCAG (site GTAAGTCCTCT)	0.544
TAATTGCCTTGGGTTCTAACCTGTTGCCT (site TAATTGCCTAG)	0.645
TCCGAGGCTTGGGTTCTAACCTGTTGCTG (site TCTGAGGCTCA)	0.241
GATGCGACTTGGGTTCTAACCTGTTGCCG (site GATGTGACTAG)	0.121
GAAGTCGCTTGGGTTCTAACCTGTTGCCT (site GAAGCCGCTAG)	0.508
TTCCAAACTTGGGTTCTAACCTGTTGCGG (site TTCCAAACTCC)	1.31
AACATAACTTGGGTTCTAACCTGTTGCGT (site AACATAACTAC)	1.34
TTGAGTCCTTGGGTTCTAACCTGTTGCCT (site TTGGGTCCTAC)	0.319
TGGCGTACTTGGGTTCTAACCTGTTGCCT (site TGGGGTACTAG)	0.0637
AGAAGTCCTTGGGTTCTAACCTGTTGCGG (site AGAAGTCCTCG)	0.101
AGGCATCCTTGGGTTCTAACCTGTTGCCT (site ATGCATCCTAG)	0.0852
CCATACGCTTGGGTTCTAACCTGTTGCCT (site CGAGACGCTAG)	0.189
ACAGGTGCTTGGGTTCTAACCTGTTGCCT (site ACAGGTGCTAG)	1.98

Sequence	recombinant barcode read abundance (log10)
CGAAGCTCTTGGGTTCTAACCTGTTGCCT (site CGAAGCTCTAG)	1.44
GACGGGGCTTGGGTTCTAACCTGTTGCAG (site GACGGAGCTCA)	0.753
GCATGAGCTTGGGTTCTAACCTGTTGCCT (site GCATGAGCTAG)	2.09
CAAAGTCCTTGGGTTCTAACCTGTTGCCT (site CAAAGTCCTAG)	1.12
CTAGTACCTTGGGTTCTAACCTGTTGCCT (site TTAGTAACTAG)	0.0602
AATTTGACTTGGGTTCTAACCTGTTGCCT (site AAGTTGACTAG)	0.115
CCGATCACTTGGGTTCTAACCTGTTGCCT (site CCGATCACTAG)	1.14
ACTGTAACTTGGGTTCTAACCTGTTGCTT (site ACTTTAACTAA)	0.0634
ATGATACCTTGGGTTCTAACCTGTTGCCT (site AAGATACCTAG)	0.157
GACTCTCCTTGGGTTCTAACCTGTTGCTT (site GACTCTCCTAT)	0.241
TATTAGCCTTGGGTTCTAACCTGTTGCCT (site TATTATCCTAG)	0.27
CCATACGCTTGGGTTCTAACCTGTTGCCT (site CCATACGCTAG)	0.178
TAATGAACTTGGGTTCTAACCTGTTGCCT (site TAATGTACTAG)	0.216
GTGTGTACTTGGGTTCTAACCTGTTGCCA (site GTGTGTACTTG)	0.488
CTCGGATCTTGGGTTCTAACCTGTTGCTA (site CTCGGATCTTA)	0.67
TACTATTCTTGGGTTCTAACCTGTTGCCT (site TACTATACTAG)	0.0693
CACTTAGCTTGGGTTCTAACCTGTTGCCT (site CACTTACCTAG)	0.181
AATTCAGCTTGGGTTCTAACCTGTTGCCT (site AATTAAGCTAG)	0.0713
AGAGCGACTTGGGTTCTAACCTGTTGCCT (site AGAGCGACTAG)	0.727
GACTCTCCTTGGGTTCTAACCTGTTGCTT (site GACTCTCCTAA)	1.53
